Data on 30 molecules can be found in ChEMBL document CHEMBL1131862, “Synthesis and anti-HIV activity of arylpiperazinyl fluoroquinolones: a new class of anti-HIV agents” (Bioorg Med Chem Lett, 1999).

The subject of assay [1] is Human immunodeficiency virus 1. Kind of assay: Cytotoxicity to HIV-1 IIIB chronically infected Molt-4 cells assayed using tetrazolium based colorimetric assay. The class given is functional. As to conditions: Human immunodeficiency virus 1, MOLT-4; call rule not given here.
The subject of assay [2] is Human immunodeficiency virus 1. Kind of assay: Anti-HIV activity against HIV-1 IIIB chronically infected Molt-4 cells. The class given is functional, organism-based. As to conditions: Human immunodeficiency virus 1, MOLT-4.
Another assay has as its system MOLT-4. Kind of assay: Anti-HIV activity against HIV-1 IIIB chronically infected Molt-4 cells; Not active. The class given is functional, cell-based, Homo sapiens.

`O=C(O)c1cn(C2CC2)c2c(OC(F)F)c(N3CCNCC3)c(F)cc2c1=O` displayed a CC50 in assay [1] greater than 60 µM. In assay [2], the IC50 is greater than 60 µM.
On to `COc1ccccc1N1CCN(c2c(F)cc3c(=O)c(C(=O)O)cn(CCO)c3c2OC(F)F)CC1`, for which half-maximal cytotoxicity in assay [1] (CC50) was put at 26 µM. The IC50 in assay [2] worked out at 0.26 µM.
For `COc1ccccc1N1CCN(c2c(F)cc3c(=O)c(C(=O)O)cn(C(C)C)c3c2OC(F)F)CC1`, the CC50 in assay [1] was found to be 8.9 µM. The molecule further registered an IC50 in assay [2] of 0.1 µM.
The like results for `CCn1cc(C(=O)O)c(=O)c2cc(F)c(N3CCN(c4ccccc4OC)CC3)c(OC(F)F)c21` were, in that order, 13 µM and 0.094 µM.
With `CNn1cc(C(=O)O)c(=O)c2cc(F)c(N3CCN(c4ncccn4)CC3)c(OC(F)F)c21`, in assay [1], the CC50 was greater than 60 µM. For the same molecule, inhibition in assay [2] was half-maximal at 0.5 µM (IC50).
In the case of `CC(C)n1cc(C(=O)O)c(=O)c2cc(F)c(N3CCN(c4ncccn4)CC3)c(OC(F)F)c21`, the CC50 in assay [1] came out at 31 µM. The same molecule had an IC50 in assay [2] of 0.23 µM.
`CC1COc2c(N3CCN(c4ccccn4)CC3)c(F)cc3c(=O)c(C(=O)O)cn1c23` (stereo not given): the CC50 in assay [1] was 39 µM. In assay [2], this molecule registered an IC50 of 3.7 µM.
`O=C(O)c1cn(C2CC2)c2c(OC(F)F)c(N3CCN(c4ccccn4)CC3)c(F)cc2c1=O`: it took 15 µM to reach half-maximal cytotoxicity in assay [1] (CC50). The same molecule showed an IC50 in assay [2] of 0.25 µM.
In the same order, the values of `COc1ccccc1N1CCN(c2c(F)cc3c(=O)c(C(=O)O)cn(CCN(C)C)c3c2OC(F)F)CC1` are greater than 55 µM and 5.6 µM.
The like results for `Cn1cc(C(=O)O)c(=O)c2cc(F)c(N3CCN(c4ncccn4)CC3)c(OC(F)F)c21` were, in that order, 38 µM and 0.14 µM.
In the same order, the values of `COc1cccc(N2CCN(c3c(F)cc4c(=O)c(C(=O)O)cn(C5CC5)c4c3OC(F)F)CC2)c1` are 22 µM and 0.7 µM.
In assay [1], `O=C(O)c1cn(C2CC2)c2c(OC(F)F)c(N3CCN(c4ncccn4)CC3)c(F)cc2c1=O` came in with a CC50 greater than 40 µM. In assay [2], the IC50 came to 0.97 µM.
In assay [1], `O=C(O)c1cn(C2CC2)c2c(OC(F)F)c(N3CCN(Cc4ccccc4)CC3)c(F)cc2c1=O` registered a CC50 of 23 µM. Further, in the assay on MOLT-4, the IC50 result was “Not Active”.
In the case of `O=C(O)c1cn(C2CC2)c2c(OC(F)F)c(N3CCN(c4ccccc4)CC3)c(F)cc2c1=O`, in assay [1], the CC50 worked out at 8.4 µM. In assay [2], this molecule registered an IC50 of 0.063 µM.
As to `COc1ccccc1N1CCN(c2c(F)cc3c(=O)c(C(=O)O)cn(C)c3c2OC(F)F)CC1`, the CC50 in assay [1] was 13 µM. In assay [2], this molecule gave an IC50 of 0.14 µM.
`O=C(O)c1cn(C2CC2)c2c(F)c(N3CCN(c4ccccn4)CC3)c(F)cc2c1=O` displayed a CC50 in assay [1] greater than 50 µM. For the same molecule, it took 50 µM to reach half-maximal inhibition in assay [2] (IC50).
In the same order, the values of `CNn1cc(C(=O)O)c(=O)c2cc(F)c(N3CCN(c4ccccc4OC)CC3)c(OC(F)F)c21` are 19 µM and 0.35 µM.
The like results for `O=C(O)c1cn(C2CC2)c2c(OC(F)F)c(N3CCN(c4ccc(F)cc4)CC3)c(F)cc2c1=O` were, in that order, 5.7 µM and 0.059 µM.
In the same order, the values of `COc1ccccc1N1CCN(c2c(F)cc3c(=O)c(C(=O)O)cn(CCF)c3c2OC(F)F)CC1` are 22 µM and 0.27 µM.
The molecule `CN1CCN(c2c(F)cc3c(=O)c(C(=O)O)cn(C4CC4)c3c2OC(F)F)CC1` had a 50% cytotoxic concentration (CC50) in assay [1] greater than 60 µM. The same molecule gave an IC50 in assay [2] greater than 60 µM.
In turn, `COc1ccc(N2CCN(c3c(F)cc4c(=O)c(C(=O)O)cn(C5CC5)c4c3OC(F)F)CC2)cc1` registered a CC50 in assay [1] of 17 µM. In assay [2], the IC50 was 0.6 µM.
`O=C(O)c1cn(CCO)c2c(OC(F)F)c(N3CCN(c4ncccn4)CC3)c(F)cc2c1=O`: the CC50 in assay [1] was greater than 60 µM. Moreover, in assay [2], the IC50 turned out to be 0.79 µM.
In assay [1], `O=C(O)c1cn(C2CC2)c2c(OC(F)F)c(N3CCN(c4ccc(Cl)cc4)CC3)c(F)cc2c1=O` returned a CC50 of 5.8 µM. In assay [2], this molecule had an IC50 of 0.48 µM.
`COc1ccccc1N1CCN(c2c(F)cc3c(=O)c(C(=O)O)cn(CC(=O)O)c3c2OC(F)F)CC1`: the CC50 in assay [1] is greater than 55 µM. In assay [2], the IC50 is greater than 55 µM.
For `COc1c(N2CCN(c3ccccn3)CC2)c(F)cc2c(=O)c(C(=O)O)cn(C3CC3)c12`, half-maximal cytotoxicity in assay [1] (CC50) was put at 26 µM. The molecule further had an IC50 in assay [2] of 1.8 µM.
`COc1ccccc1N1CCN(c2c(F)cc3c(=O)c(C(=O)O)cn(CCOC(C)=O)c3c2OC(F)F)CC1`: the CC50 in assay [1] turned out to be 11 µM. Moreover, 0.1 µM corresponded to half-maximal inhibition in assay [2] (IC50).
Turning to `O=C(O)c1cn2c3c(c(N4CCN(c5ccccn5)CC4)c(F)cc3c1=O)OCC2CF` (stereo not given), the CC50 in assay [1] is greater than 60 µM. This molecule also came in with an IC50 in assay [2] of 1.7 µM.
In the case of `COc1ccccc1N1CCN(c2c(F)cc3c(=O)c(C(=O)O)cn(C4CC4)c3c2OC(F)F)CC1`, the CC50 in assay [1] was 9.9 µM. Also, the IC50 in assay [2] was determined as 0.11 µM.
In the same order, the values of `O=C(O)c1cn(CCF)c2c(OC(F)F)c(N3CCN(c4ncccn4)CC3)c(F)cc2c1=O` are greater than 60 µM and 0.93 µM.
Take `CCn1cc(C(=O)O)c(=O)c2cc(F)c(N3CCN(c4ncccn4)CC3)c(OC(F)F)c21`: the CC50 in assay [1] was 28 µM. In assay [2], this molecule had an IC50 of 0.41 µM.
